Reference: ChEMBL document CHEMBL1121748, “Antimycotic imidazoles. 5. Synthesis and antimycotic properties of 1-[[2-aryl-4-(arylalkyl)-1,3-dioxolan-2-yl]methyl]-1H-imidazoles” (1981)

Legend:
Mucor = assay: Antifungal activity against Mucor species; assay type: functional
Cryptococcus neoformans = assay: Antifungal activity against Cryptococcus neoformans; assay type: functional
Trichophyton rubrum = assay: Antifungal activity against Trichophyton rubrum; assay type: functional
Candida tropicalis = assay: Antifungal activity against Candida tropicalis; assay type: functional
Candida albicans = assay: Antifungal activity against Candida albicans; assay type: functional
[1] = Ratio of animals cured to that of animals infected, tested in vivo for antifungal activity against vaginal candidosis in rat; 1/2
[2] = test system: Trichophyton mentagrophytes; assay: Compound was tested for antifungal activity against Trichophyton mentagrophytes
Phialophora verrucosa = assay: Antifungal activity against Phialophora verrucosa; assay type: functional
[3] = test system: Staphylococcus haemolyticus; assay: Antibacterial against Staphylococcus hemolyticus; assay type: functional
Microsporum canis = assay: Antifungal activity against Microsporum canis; assay type: functional
Sporothrix schenckii = assay: Antifungal activity against Sporothrix schenck ii; assay type: functional
Aspergillus fumigatus = assay: Antifungal activity against Aspergillus fumigatus; assay type: functional
Streptococcus pyogenes = assay: Antibacterial activity against Streptococcus pyogenes; assay type: functional
[4] = test system: Erysipelothrix rhusiopathiae; assay: Antibacterial activity against Erysipelothrix insidiosa; assay type: functional
Saprolegnia [5] = assay: Antifungal activity against Saprolegnia species; assay type: functional
[6] = Ratio of animals cured to that of animals infected, tested in vivo for antifungal activity against cutaneous candidosis in guinea pig; 0/2; assay type: functional; further: test concentration or dose not given here
Saprolegnia [7] = assay: compound was tested for antifungal activity against Saprolegnia species; assay type: functional
Trichophyton benhamiae = assay: Antifungal activity against Trichophyton mentagrophytes; assay type: functional, trychophyton mentagrophytes
[8] = Ratio of animals cured to that of animals […], Tested in vivo for antifungal activity against vaginal candidosis in rat; 2/4; assay type: functional
[9] = Ratio of animals cured to that of animals infected, tested in vivo for antifungal activity against vaginal candidosis in rat; 0/2; further: test concentration or dose not given here
[10] = Ratio of animals cured to that of animals infected, tested in vivo for antifungal activity against cutaneous candidosis in guinea pig; 3/4; assay type: functional
[11] = Ratio of animals cured to that of animals infected, tested in vivo for antifungal activity against cutaneous candidosis in guinea pig; 2/2; assay type: functional; further: test concentration or dose not given here
[12] = Ratio of animals cured to that of animals […], Tested in vivo for antifungal activity against vaginal candidosis in rat; 1/2; assay type: functional

In the case of `Cc1ccc(C2COC(Cn3ccnc3)(c3ccc(Br)cc3)O2)cc1` (stereo not drawn), the Inhibition (Mucor) is reported as 10 µg/mL, the Inhibition (Cryptococcus neoformans) is reported as 10 µg/mL and the Inhibition (Trichophyton rubrum) is reported as <1 µg/mL. The Inhibition (Candida tropicalis) was >100 µg/mL, the Inhibition (Candida albicans) was 10 µg/mL and the Ratio [1] was 1. It also gave an Inhibition [2] of 10 µg/mL, an Inhibition (Phialophora verrucosa) of 100 µg/mL and an Inhibition [3] of 10 µg/mL. The Inhibition (Microsporum canis) was <1 µg/mL, the Inhibition (Sporothrix schenckii) was 100 µg/mL and the Inhibition (Aspergillus fumigatus) was <1 µg/mL. For the same compound, the Inhibition (Streptococcus pyogenes) was 10 µg/mL, the Inhibition [4] was 1 µg/mL and the Inhibition (Saprolegnia [5]) was 100 µg/mL.
For `Clc1ccc(C2COC(Cn3ccnc3)(c3ccccc3)O2)c(Cl)c1` (stereo not drawn), the Inhibition (Mucor) was 100 µg/mL, the Ratio [6] was 0 and the Inhibition (Cryptococcus neoformans) was 10 µg/mL. For the same compound, the Inhibition (Trichophyton rubrum) was <1 µg/mL, the Inhibition (Candida tropicalis) was >100 µg/mL and the Inhibition (Candida albicans) was >100 µg/mL. It also gave an Inhibition (Phialophora verrucosa) of 100 µg/mL, an Inhibition (Saprolegnia [7]) of 100 µg/mL and an Inhibition [3] of 10 µg/mL. For the same compound, the Inhibition (Microsporum canis) was 10 µg/mL, the Inhibition (Sporothrix schenckii) was 10 µg/mL and the Inhibition (Aspergillus fumigatus) was 10 µg/mL. The Inhibition (Streptococcus pyogenes) was 1 µg/mL, the Inhibition [4] was 10 µg/mL and the Inhibition (Trichophyton benhamiae) was <1 µg/mL.
`COc1ccc(CCC2COC(Cn3ccnc3)(c3ccc(Cl)cc3Cl)O2)cc1` (stereo not drawn) gave an Inhibition (Mucor) of 100 µg/mL, a Ratio [6] of 0 and an Inhibition (Cryptococcus neoformans) of 1 µg/mL. The Inhibition (Trichophyton rubrum) was <1 µg/mL, the Inhibition (Candida tropicalis) was 10 µg/mL and the Inhibition (Candida albicans) was 100 µg/mL. The Inhibition (Phialophora verrucosa) was 100 µg/mL, the Inhibition [3] was 100 µg/mL and the Inhibition (Microsporum canis) was 1 µg/mL. For the same compound, the Inhibition (Sporothrix schenckii) was 10 µg/mL, the Inhibition (Aspergillus fumigatus) was <1 µg/mL and the Inhibition (Streptococcus pyogenes) was <1 µg/mL. The Inhibition [4] was <1 µg/mL, the Inhibition (Trichophyton benhamiae) was <1 µg/mL and the Ratio [8] was 0.5. The Inhibition (Saprolegnia [5]) was 100 µg/mL.
With `Clc1ccc(C2(Cn3ccnc3)OCC(c3ccc(Br)cc3)O2)c(Cl)c1` (stereo not drawn) the Ratio [9] was 0, the Inhibition (Mucor) was 10 µg/mL and the Inhibition (Cryptococcus neoformans) was <1 µg/mL. For the same compound, the Inhibition (Trichophyton rubrum) was <1 µg/mL, the Inhibition (Candida tropicalis) was 10 µg/mL and the Inhibition (Candida albicans) was 100 µg/mL. For the same compound, the Inhibition (Phialophora verrucosa) was 100 µg/mL, the Inhibition [3] was 10 µg/mL and the Inhibition (Microsporum canis) was <1 µg/mL. The Inhibition (Sporothrix schenckii) was 10 µg/mL, the Inhibition (Aspergillus fumigatus) was <1 µg/mL and the Inhibition (Streptococcus pyogenes) was 1 µg/mL. The Inhibition [4] was 1 µg/mL, the Inhibition (Trichophyton benhamiae) was <1 µg/mL and the Ratio [10] was 0.75. It also gave an Inhibition (Saprolegnia [5]) of 100 µg/mL.
With `Clc1ccc(C2(Cn3ccnc3)OCC(c3ccccc3Cl)O2)cc1` (stereo not drawn) the Inhibition (Mucor) was 100 µg/mL, the Inhibition (Cryptococcus neoformans) was 10 µg/mL and the Inhibition (Trichophyton rubrum) was <1 µg/mL. For the same compound, the Ratio [11] was 2, the Inhibition (Candida tropicalis) was >100 µg/mL and the Inhibition (Candida albicans) was >100 µg/mL. The Inhibition (Phialophora verrucosa) was 100 µg/mL, the Inhibition [3] was 10 µg/mL and the Inhibition (Microsporum canis) was 10 µg/mL. The Inhibition (Sporothrix schenckii) was >1 µg/mL, the Ratio [12] was 1 and the Inhibition (Aspergillus fumigatus) was 100 µg/mL. The Inhibition (Streptococcus pyogenes) was 1 µg/mL, the Inhibition [4] was 1 µg/mL and the Inhibition (Trichophyton benhamiae) was <1 µg/mL. For the same compound, the Inhibition (Saprolegnia [5]) was 10 µg/mL.
